Measurements taken from patent US20260345547A1, “USE OF DIHYDROQUERCETIN IN TREATING OCULAR SURFACE DISEASES” (HE UNIVERSITY SCHOOL OF CLINICAL MEDICINE, priority 2022, published 2026).
Several values for one entry are separate records, joined by “and”; a condition that tells them apart may be missing. Equal entries are not always repeated.

How the values were obtained:
[1] = system: HCE cells (H2O2-induced oxidative damage); assay: MTS assay: anti-oxidative damage effect on HCE cells with H2O2-induced damage; assay type: cell-based, human
Method: (§1) Human corneal epithelial cells were purchased from the American Type Culture Collection (ATCC). The cell medium used was high-sugar DMEM medium supplemented with 10% (V/V) fetal bovine serum, 100 U/mL penicillin, and 100 μg/mL gentamicin. The cells were cultured in an incubator containing 5% carbon dioxide at 37° C. Cells in the logarithmic growth phase were seeded into a 96-well plate at a density of 1.5×10^5 cells/mL, with 100 μL per well and 6 replicate wells per group. The cells were grouped into a normal cell group, a hydrogen peroxide model group, and intervention groups treated with dihydroquercetin at various concentrations. The assay was performed using an MTS kit (e.g., Promega), and absorbance was measured at 490 nm using a microplate reader.
(§2) Survival rate=survival rate of each group/survival rate of normal cell group×100%
Human corneal epithelial cells were purchased from the American Type Culture Collection (ATCC). The cell medium used was high-sugar DMEM medium supplemented with 10% (V/V) fetal bovine serum, 100 U/mL penicillin, and 100 μg/mL gentamicin. The cells were cultured in an incubator containing 5% carbon dioxide at 37° C. Cells in the logarithmic growth phase were seeded into a 96-well plate at a density of 1.5×10^5 cells/mL, with 100 μL per well and 6 replicate wells per group. After 24 h, the cells were treated with H2O2 or dihydroquercetin according to the experimental purpose. […] To measure the colorimetric results, the absorbance value of each well was read at the wavelength of 490 nm using an enzyme-linked immunosorbent assay reader. The results were recorded, and a cell growth curve was plotted with time as the abscissa and absorbance value as the ordinate.
The experiment included 8 groups: a normal control group, a H2O2 model group, and intervention groups treated with various concentrations of dihydroquercetin (0.1-200 μM)+H2O2. […] The survival rate of cells in each group was assessed by the MTS assay to evaluate the protective effect of dihydroquercetin against oxidative damage of HCE cells.

[2] = system: human corneal epithelial (HCE) cells; assay: MTS assay: survival rate of HCE cells treated with H2O2 (damage model); assay type: cell-based; conditions: 300 μM H2O2, 24 h, relative to normal cell group
Method: as §1, with “reader. […]” for “reader.”
Human corneal epithelial cells were purchased from the American Type Culture Collection (ATCC). […] To measure the colorimetric results, the absorbance value of each well was read at the wavelength of 490 nm using an enzyme-linked immunosorbent assay reader. The results were recorded, and a cell growth curve was plotted with time as the abscissa and absorbance value as the ordinate.
HCE cells were subcultured and seeded at 1.5×10^5 cells/mL, with 100 μL per well. […] To measure the colorimetric results, the absorbance value of each well was read at the wavelength of 490 nm using an enzyme-linked immunosorbent assay reader. […]

mouse model of dry eye [3] = assay: Tear secretion amount (phenol red cotton thread) in dry eye mice; assay type: in vivo, C57/BL6 mice; conditions: 5 μL drops twice daily, ocular, day 14 of modeling, compared to model control group, P<0.001
Source text: (§3) Out of 50 healthy 8-week-old female C57/BL6 mice, 30 were selected for the experiment. Five mice were randomly assigned to each group, resulting in a total of six groups: blank control group (N), model group (M), positive drug group (CsA), low concentration traditional Chinese medicine group (SL), medium concentration traditional Chinese medicine group (SM), and high concentration traditional Chinese medicine group (SH). During grouping, identification was marked on the mice's tails and cage cards, which included details such as the experiment name, experiment number, group designation, administration dosage, and administration schedule.
(§4) In this experiment, a mouse model of dry eye was established using an intelligent dry environment control system in combination with scopolamine injection. A two-step dehumidification method was used to control the humidity of the environment during the modeling process. Initially, a temperature-adjustable industrial dehumidifier was used to reduce the room humidity to 40%±5%. […]
The mice were restrained without anesthesia. […] The thread was then placed on a printable ruler, and the length of the red-stained portion was measured and recorded. The data were analyzed statistically using GraphPad Prism 8.0 software. […]

[4] = system: corneal neovascularization model in rabbits; assay: Corneal neovascularization after corneal alkali burn in rabbits; assay type: in vivo, New Zealand rabbits; conditions: 50 μL twice daily, ocular, 14 days after treatment, compared to model group; for corneal neovascularization area: P<0.01
Source text: […] 3-month-old healthy New Zealand rabbits, half male and half female, were randomly assigned to six groups, with each group containing six rabbits. The groups were designated as blank control group (N), model control group (M), positive drug group (LEV), low concentration dihydroquercetin group (E1), high concentration dihydroquercetin group (E2) and solvent control group (R). Identification was marked on the rabbits' ears and cage cards, which included details such as the experiment name, experiment number, group designation, administration dosage, and administration schedule.
In this experiment, the corneal neovascularization model in rabbits was established using a chemical injury method. The rabbits were generally anesthetized with an intravenous injection of 1% pentobarbital sodium administered via the marginal ear vein. […] A 6 mm diameter filter paper was soaked in a 1 mol/L NaOH solution for 1 minute. The soaked filter paper was then applied to the center of the cornea for 30 seconds, after which it was removed. The ocular surface and conjunctival sac were subsequently rinsed with physiological saline for 1 minute. Following the modeling procedure, levofloxacin was applied as eye drops to the modeled eye to prevent postoperative infection.
The route of administration was ocular, and treatment commenced the day before modeling. No drug was administered to the blank control group or model control group. In the positive drug group, 50 μL of levofloxacin was applied to the conjunctival sac. In the low concentration group, 50 μL of a 0.03% dihydroquercetin solution was applied, while in the high concentration group, 50 μL of a 0.3% dihydroquercetin solution was applied. All treatments were administered twice daily at 9:00 a.m. and 3:00 p.m.
Fourteen days after treatment, ocular surface inflammation and neovascularization were assessed in each experimental group. The area of neovascularization was imaged, recorded, and subsequently quantified. Data were analyzed statistically using GraphPad Prism 8.0 software.

mouse model of dry eye [5] = assay: Tear film breakup time in dry eye mice; assay type: in vivo, C57/BL6 mice; conditions: treatment groups (0.03% and 0.3%), ocular; day 14 of modeling; compared to model control group, P<0.05
Source text: as §3, §4
The mice were restrained without anesthesia, and sodium fluorescein solution was instilled into their conjunctival sacs. […] The time until the appearance of a block spot due to tear film breakup was recorded. […] The data were analyzed statistically using GraphPad Prism 8.0 software. […]

mouse model of dry eye [6] = assay: Sodium fluorescein staining of cornea (corneal epithelial damage) in dry eye mice; assay type: in vivo, C57/BL6 mice; conditions: day 14 of modeling
Source text: as §3
In this experiment, a mouse model of dry eye was established using an intelligent dry environment control system in combination with scopolamine injection. A two-step dehumidification method was used to control the humidity of the environment during the modeling process. […]
The corneal morphology of experimental mice in each group was observed before modeling and 14 days after modeling. […] The sodium fluorescein-stained corneas of the mice were then illuminated with cobalt blue light, observed, imaged and recorded with a slit lamp. […] Sodium fluorescein residues on the corneal surface was scored and recorded. The data were analyzed statistically using GraphPad Prism 8.0 software.

HCE cells = assay: MTS assay: proliferative and toxic effects of dihydroquercetin on HCE cells; assay type: cell-based, human; conditions: 24 h; for cell viability of HCE cells: compared to control group
Method: as §1, §2
Human corneal epithelial cells were purchased from the American Type Culture Collection (ATCC). The cell medium used was high-sugar DMEM medium supplemented with 10% (V/V) fetal bovine serum, 100 U/mL penicillin, and 100 μg/mL gentamicin. The cells were cultured in an incubator containing 5% carbon dioxide at 37° C. Cells in the logarithmic growth phase were seeded into a 96-well plate at a density of 1.5×10^5 cells/mL, with 100 μL per well and 6 replicate wells per group. After 24 h, the cells were treated with H2O2 or dihydroquercetin according to the experimental purpose. For color development, 20 μL of MTS solution was added to each well, and the cells were incubated for another 2-4 h. To measure the colorimetric results, the absorbance value of each well was read at the wavelength of 490 nm using an enzyme-linked immunosorbent assay reader. The results were recorded, and a cell growth curve was plotted with time as the abscissa and absorbance value as the ordinate.
Various concentrations of dihydroquercetin (0.01-600 μM) were applied to HCE cells, and 6 replicate wells were set for each group to ensure the reliability and accuracy of the experimental data. The proliferative effect of the drug on the cells was then assessed.

SMILES: OO [H2O2, hydrogen peroxide, reference compound]
- cell survival rate, H2O2 model group ([1]; 300 μM H2O2, compared to control group, P<0.001): lower
- viability at 300 µM [2]: 49%

SMILES: O=C1c2c(O)cc(O)cc2O[C@H](c2ccc(O)c(O)c2)[C@H]1O [dihydroquercetin]
- concentration offering protection against H2O2-induced oxidative stress damage in HCE cells ([1]; 300 μM H2O2, MTS assay): 25 to 200 µM
- cell survival rate, dihydroquercetin + H2O2 ([1]; 25-200 μM with 300 μM H2O2, compared to H2O2 model group, P<0.01): higher
- tear secretion (mouse model of dry eye [3]; high concentration group (E2), 0.3%): significantly increased
- tear secretion (mouse model of dry eye [3]; low concentration group (E1), 0.03%): significantly increased
- new blood vessels (slit lamp morphology) ([4]; high concentration, 0.3%): fewer new blood vessels
- corneal neovascularization area ([4]; high concentration, 0.3%): smaller
- new blood vessels (slit lamp morphology) ([4]; low concentration, 0.03%): fewer new blood vessels
- corneal neovascularization area ([4]; low concentration, 0.03%): smaller
- tear film breakup time (mouse model of dry eye [5]): increased significantly
- sodium fluorescein staining of cornea (morphology) (mouse model of dry eye [6]; compared to model control group): significant reduction in staining
- corneal epithelial damage score, sodium fluorescein staining (mouse model of dry eye [6]; treatment groups (0.03% and 0.3%), ocular, compared to model group, P<0.001): significant reduction in damage
- cell viability of HCE cells (HCE cells; 50 μM): significantly higher
- cell viability of HCE cells (HCE cells; 100 μM): significantly higher
- cell viability of HCE cells (HCE cells; 200 μM): significantly higher
- cell viability of HCE cells (HCE cells; 600 μM): significantly reduced
- concentration that has a proliferation effect on HCE cells (HCE cells; MTS assay): 25 to 200 µM and 50 to 200 µM
- concentration with toxic effect on HCE cells (HCE cells; MTS assay): 600 µM

SMILES: C[C@H]1COc2c(N3CCN(C)CC3)c(F)cc3c(=O)c(C(=O)O)cn1c23 [levofloxacin, reference compound]
- new blood vessels (slit lamp morphology) [4]: fewer new blood vessels
- corneal neovascularization area [4]: smaller
